From ChEMBL document CHEMBL1201862, “PubChem BioAssay data set” (2004)
The source made the active and inactive calls.

Assays:
[1] = luciferase reporter signal suppression in cells – H4 neuroglioma cells, luminescence, dose response (AID 1990); format: functional, cell-based
[2] = system: HEK293; assay: inhibition of NOD1-driven NF-kB reporter – cell-based, luminescence, uHTS, primary screen (AID 1578); format: functional; conditions: Homo sapiens
[3] = system: Streptococcus sp. 'group A'; assay: Streptococcus pyogenes SK(-)GAS viability under kanamycin – luminescence, BacTiterGlo, confirmation, counter-screen for streptokinase expression inhibitor project, dose response (AID 1900); format: functional, organism-based
[4] = system: HEK293; assay: cells; format: functional, cell-based; conditions: Homo sapiens
[5] = molecular target: T1, Streptokinase A (Streptococcus pyogenes serotype M1, UniProt P10520); assay: viability-normalized secreted streptokinase activity reduction – plasminogen activation absorbance, OD405, dose response (AID 1914); format: functional, Streptococcus pyogenes M1 GAS;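 also: secreted streptokinase activity via plasminogen activation per viability signal from cell pellet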
T1 sequence (P10520 whole entry): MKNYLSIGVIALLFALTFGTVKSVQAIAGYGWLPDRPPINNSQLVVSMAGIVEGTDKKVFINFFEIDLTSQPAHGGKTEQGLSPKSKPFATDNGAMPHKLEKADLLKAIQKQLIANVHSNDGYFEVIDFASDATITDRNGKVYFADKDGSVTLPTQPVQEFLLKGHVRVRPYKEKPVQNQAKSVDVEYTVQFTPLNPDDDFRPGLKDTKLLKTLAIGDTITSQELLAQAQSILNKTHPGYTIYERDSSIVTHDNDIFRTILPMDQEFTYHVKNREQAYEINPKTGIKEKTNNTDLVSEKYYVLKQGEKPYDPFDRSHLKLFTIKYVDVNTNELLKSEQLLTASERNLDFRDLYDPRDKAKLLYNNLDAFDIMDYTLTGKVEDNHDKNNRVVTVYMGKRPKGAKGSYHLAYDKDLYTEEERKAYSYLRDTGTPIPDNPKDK

[6] = system: HEK293; assay: cells; format: functional, cell-based; conditions: Homo sapiens; remark: listed apart in the source
[7] = microbe, parasite or virus in culture; format: functional; conditions: Mycobacterium tuberculosis
[8] = system: Streptococcus; assay: GAS UMAA2166 growth inhibition – luminescence, BacTiterGlo, counter-screen for streptokinase expression inhibitor project, dose response (AID 1915); format: functional, organism-based;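 also: potency for reduction of bacterial viability or growth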
[9] = molecular target: T2, Bcl-2-related protein A1 (Mus musculus, UniProt Q07440); format: functional;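 also: confirmatory dose–response counterscreen on Bfl-1, used to check hits from a UBC13 polyubiquitin inhibitor campaign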
T2 sequence (Q07440 whole entry): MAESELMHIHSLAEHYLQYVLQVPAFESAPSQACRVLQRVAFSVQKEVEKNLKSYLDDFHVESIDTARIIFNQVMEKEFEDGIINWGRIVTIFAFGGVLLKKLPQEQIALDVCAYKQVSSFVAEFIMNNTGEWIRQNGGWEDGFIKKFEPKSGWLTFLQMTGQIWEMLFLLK

[10] = molecular target: T3, Ubiquitin-conjugating enzyme E2 N (Homo sapiens, UniProt P61088); format: functional
T3 sequence (P61088 whole entry): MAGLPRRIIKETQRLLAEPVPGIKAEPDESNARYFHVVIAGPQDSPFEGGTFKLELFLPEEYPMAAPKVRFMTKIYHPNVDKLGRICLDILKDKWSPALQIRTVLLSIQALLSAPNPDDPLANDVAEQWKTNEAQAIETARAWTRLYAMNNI

[11] = molecular target: T3, Ubiquitin-conjugating enzyme E2 N; format: functional; remark: listed apart in the source
[12] = system: HEK293; assay: EBV LMP1 TES2 canonical NF-kB signalling blockers – cell-based, HEK293, luciferase, cherry-pick, dose response (AID 588343); format: functional, Homo sapiens; conditions: Homo sapiens, HEK293
[13] = molecular target: Dual specificity protein kinase CLK1 (Homo sapiens, UniProt P49759); assay: inhibition of human CLK1 activity – biochemical, cherry-picked samples, selectivity assay for Dyrk1A inhibitor project, dose response (AID 588811)
[14] = molecular target: Dual specificity tyrosine-phosphorylation-regulated kinase 1A (Rattus norvegicus, UniProt Q63470); format: biochemical, Homo sapiens
[15] = reduction of Shn3 3'UTR-driven luciferase in osteoblasts – cell-based, Clone20 osteoblasts, firefly luciferase, cherry-picked, dose response (AID 624132); format: functional;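 also: firefly luciferase luminescence from reporter carrying the Shn3 3'UTR in osteoblasts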
[16] = loss of viability in HepG2 cells – cell-based, CellTiter-Glo, cherry-picked, cytotoxicity control for Shn3 inhibitor project, dose response (AID 624134); format: functional
[17] = non-specific 3'UTR reporter inhibition in Clone20-Shn3RL – cell-based, Renilla luciferase, cherry-picked, counter-screen for Shn3 inhibitor project, dose response (AID 624133); format: functional
[18] = molecular target: Hepatocyte nuclear factor 4-alpha (Homo sapiens, UniProt P41235); format: functional, cell-based;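 also: biochemical luminescence-based dose-response counterscreen measuring inhibition of HNF4 dimerization, run alongside a screen for blockers of ABHD5–perilipin-5 interaction; split luciferase complementation of HNF4 fusion proteins in cell lysate measuring dimerization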
[19] = viability loss in HeLa cells – cytotoxicity control for MgcRacGAP inhibitor project, dose response (AID 624300); format: functional
[20] = molecular target: T4, Rac GTPase-activating protein 1 (Homo sapiens, UniProt Q9H0H5); assay: blockers of MgcRacGAP-driven Rac1 GTP hydrolysis – biochemical, ADP Hunter fluorescence, primary and confirmatory, confirmation (AID 624330); format: functional
T4 sequence (Q9H0H5 whole entry): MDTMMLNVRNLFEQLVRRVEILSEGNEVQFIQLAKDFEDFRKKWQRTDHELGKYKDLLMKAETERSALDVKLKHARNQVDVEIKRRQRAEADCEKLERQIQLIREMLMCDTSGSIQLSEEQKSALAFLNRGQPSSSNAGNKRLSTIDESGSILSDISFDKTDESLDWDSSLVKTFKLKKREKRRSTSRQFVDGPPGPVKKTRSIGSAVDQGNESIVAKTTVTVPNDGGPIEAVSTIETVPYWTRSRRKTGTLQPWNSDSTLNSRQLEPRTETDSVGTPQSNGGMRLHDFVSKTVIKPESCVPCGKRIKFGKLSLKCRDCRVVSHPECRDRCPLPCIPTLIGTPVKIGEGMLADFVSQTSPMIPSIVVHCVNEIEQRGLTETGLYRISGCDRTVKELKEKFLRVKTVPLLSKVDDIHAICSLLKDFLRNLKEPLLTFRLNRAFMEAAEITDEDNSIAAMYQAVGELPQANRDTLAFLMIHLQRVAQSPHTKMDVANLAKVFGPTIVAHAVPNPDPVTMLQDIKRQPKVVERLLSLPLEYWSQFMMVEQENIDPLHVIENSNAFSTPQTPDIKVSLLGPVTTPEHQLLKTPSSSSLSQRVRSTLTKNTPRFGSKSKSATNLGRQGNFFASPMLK

[21] = molecular target: Nonstructural protein 1 (Influenza A virus, UniProt Q194T2); format: functional, Influenza A virus (A/California/07/2009(H1N1))
[22] = molecular target: T5, Replicative DNA helicase DnaB (Mycobacterium tuberculosis, UniProt P9WMR3); assay: DnaB intein splicing inhibitors, dose response, biochemical, cell-free fluorescence (AID 449749); format: functional
T5 sequence (P9WMR3 whole entry): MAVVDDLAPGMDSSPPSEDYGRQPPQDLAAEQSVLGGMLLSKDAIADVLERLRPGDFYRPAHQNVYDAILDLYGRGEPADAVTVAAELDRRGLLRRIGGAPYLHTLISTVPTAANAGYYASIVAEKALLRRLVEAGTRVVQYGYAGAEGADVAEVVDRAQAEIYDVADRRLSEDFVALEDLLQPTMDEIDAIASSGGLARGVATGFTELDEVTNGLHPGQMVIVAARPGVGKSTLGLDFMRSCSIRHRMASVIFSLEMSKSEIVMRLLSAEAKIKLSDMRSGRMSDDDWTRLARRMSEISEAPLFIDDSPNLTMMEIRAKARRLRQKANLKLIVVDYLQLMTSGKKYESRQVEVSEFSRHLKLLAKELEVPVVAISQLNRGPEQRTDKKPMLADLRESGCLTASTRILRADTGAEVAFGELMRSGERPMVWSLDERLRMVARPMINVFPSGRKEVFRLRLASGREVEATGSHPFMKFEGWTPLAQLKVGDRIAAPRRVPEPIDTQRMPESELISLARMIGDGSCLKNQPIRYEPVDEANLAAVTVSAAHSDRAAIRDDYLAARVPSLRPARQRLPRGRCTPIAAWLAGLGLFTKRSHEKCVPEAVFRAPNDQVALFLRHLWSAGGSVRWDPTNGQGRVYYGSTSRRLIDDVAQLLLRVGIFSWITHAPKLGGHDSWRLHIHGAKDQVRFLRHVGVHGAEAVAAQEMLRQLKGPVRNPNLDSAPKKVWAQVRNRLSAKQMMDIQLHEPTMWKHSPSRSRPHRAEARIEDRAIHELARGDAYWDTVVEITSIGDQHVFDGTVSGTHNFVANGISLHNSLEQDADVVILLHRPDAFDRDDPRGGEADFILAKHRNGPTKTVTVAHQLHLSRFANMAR

[23] = molecular target: Apoptotic protease-activating factor 1 (Homo sapiens, UniProt O14727); format: functional
[24] = molecular target: T6, Protein RecA (Mycobacterium tuberculosis, UniProt P9WHJ3); assay: Fluorescence Cell-Free Homogeneous Dose Retest to Identify Inhibitors of RecA-Intein Splicing Activity. [Related pubchem assays (depositor defined):AID2097, AID2223, AID489010, AID492950]; format: functional
T6 sequence (P9WHJ3 whole entry): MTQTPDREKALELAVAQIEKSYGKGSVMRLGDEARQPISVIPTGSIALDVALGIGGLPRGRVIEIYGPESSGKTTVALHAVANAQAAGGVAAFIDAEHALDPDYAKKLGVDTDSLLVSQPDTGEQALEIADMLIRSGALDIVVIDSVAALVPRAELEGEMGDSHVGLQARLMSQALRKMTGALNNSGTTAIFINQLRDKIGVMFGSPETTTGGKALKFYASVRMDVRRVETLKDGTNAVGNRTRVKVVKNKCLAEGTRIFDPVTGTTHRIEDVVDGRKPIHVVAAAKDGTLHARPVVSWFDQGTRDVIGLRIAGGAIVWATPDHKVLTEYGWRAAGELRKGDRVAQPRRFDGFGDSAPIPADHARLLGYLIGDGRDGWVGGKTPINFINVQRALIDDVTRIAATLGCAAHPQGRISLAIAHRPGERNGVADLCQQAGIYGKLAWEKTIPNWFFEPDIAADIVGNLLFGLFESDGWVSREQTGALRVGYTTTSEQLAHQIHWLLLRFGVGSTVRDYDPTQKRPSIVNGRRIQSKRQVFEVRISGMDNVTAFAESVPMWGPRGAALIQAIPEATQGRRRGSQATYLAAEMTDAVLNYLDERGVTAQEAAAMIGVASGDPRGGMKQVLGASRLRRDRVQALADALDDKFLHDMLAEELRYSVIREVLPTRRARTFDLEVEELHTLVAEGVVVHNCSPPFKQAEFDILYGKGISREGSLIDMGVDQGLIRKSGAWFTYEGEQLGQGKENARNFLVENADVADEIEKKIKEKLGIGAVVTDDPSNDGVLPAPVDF

[25] = cells; format: functional, cell-based
[26] = Luminescence Cell-Based Dose Response HTS to Identify Inhibitors of 5'UTR Stem-Loop Driven Prion Protein mRNA Translation in H4 Neuroglioblastoma Cells. [Related pubchem assays: 1827 (Project Summary), 1813 (Primary HTS)]; format: functional
[27] = molecular target: Beta-galactosidase (Escherichia coli, UniProt Q8VNN2); assay: PubChem AID 485352; format: functional
[28] = alpha-synuclein stem-loop luciferase translation blockers – H4 neuroglioma cells, luminescence, confirmation (AID 1988); format: functional, cell-based
[29] = molecular target: T7, Type-1 angiotensin II receptor (Homo sapiens, UniProt P30556); assay: antagonism of angiotensin II type 1 receptor – cell-based, uHTS hits, selectivity assay for APJ receptor antagonist project, dose response (AID 463214); format: functional;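 also: antagonist potency against angiotensin II stimulated AT1 response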
T7 sequence (P30556 whole entry): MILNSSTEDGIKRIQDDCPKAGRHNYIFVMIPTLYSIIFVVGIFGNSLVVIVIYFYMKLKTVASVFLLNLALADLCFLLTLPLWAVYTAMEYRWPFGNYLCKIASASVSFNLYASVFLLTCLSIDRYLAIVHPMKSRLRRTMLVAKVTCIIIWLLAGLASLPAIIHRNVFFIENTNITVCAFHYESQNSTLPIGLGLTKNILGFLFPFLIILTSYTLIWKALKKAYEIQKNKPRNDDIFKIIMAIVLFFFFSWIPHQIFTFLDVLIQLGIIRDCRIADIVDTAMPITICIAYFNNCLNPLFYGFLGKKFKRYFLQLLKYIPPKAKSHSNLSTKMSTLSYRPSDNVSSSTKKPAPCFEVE

[30] = cells; format: functional, cell-based; remark: listed apart in the source
[31] = system: INS1; assay: INS-1E survival protection against cytokine death – cell-based, luminescence, retest, dose response (AID 449756); format: functional; conditions: Rattus norvegicus;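 also: cell death triggered by IL-1 beta plus TNF-alpha plus IFN-gamma mixture; protective hits raise ATP signal compared with cytokine alone wells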

Nonstructural protein 1, sequence (Q194T2 whole entry): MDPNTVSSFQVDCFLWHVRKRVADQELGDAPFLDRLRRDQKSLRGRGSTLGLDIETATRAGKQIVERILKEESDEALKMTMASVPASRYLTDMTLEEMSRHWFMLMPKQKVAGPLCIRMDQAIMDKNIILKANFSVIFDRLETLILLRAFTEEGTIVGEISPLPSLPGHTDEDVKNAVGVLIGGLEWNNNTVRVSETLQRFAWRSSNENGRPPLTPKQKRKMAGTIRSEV
Beta-galactosidase, sequence (Q8VNN2 whole entry): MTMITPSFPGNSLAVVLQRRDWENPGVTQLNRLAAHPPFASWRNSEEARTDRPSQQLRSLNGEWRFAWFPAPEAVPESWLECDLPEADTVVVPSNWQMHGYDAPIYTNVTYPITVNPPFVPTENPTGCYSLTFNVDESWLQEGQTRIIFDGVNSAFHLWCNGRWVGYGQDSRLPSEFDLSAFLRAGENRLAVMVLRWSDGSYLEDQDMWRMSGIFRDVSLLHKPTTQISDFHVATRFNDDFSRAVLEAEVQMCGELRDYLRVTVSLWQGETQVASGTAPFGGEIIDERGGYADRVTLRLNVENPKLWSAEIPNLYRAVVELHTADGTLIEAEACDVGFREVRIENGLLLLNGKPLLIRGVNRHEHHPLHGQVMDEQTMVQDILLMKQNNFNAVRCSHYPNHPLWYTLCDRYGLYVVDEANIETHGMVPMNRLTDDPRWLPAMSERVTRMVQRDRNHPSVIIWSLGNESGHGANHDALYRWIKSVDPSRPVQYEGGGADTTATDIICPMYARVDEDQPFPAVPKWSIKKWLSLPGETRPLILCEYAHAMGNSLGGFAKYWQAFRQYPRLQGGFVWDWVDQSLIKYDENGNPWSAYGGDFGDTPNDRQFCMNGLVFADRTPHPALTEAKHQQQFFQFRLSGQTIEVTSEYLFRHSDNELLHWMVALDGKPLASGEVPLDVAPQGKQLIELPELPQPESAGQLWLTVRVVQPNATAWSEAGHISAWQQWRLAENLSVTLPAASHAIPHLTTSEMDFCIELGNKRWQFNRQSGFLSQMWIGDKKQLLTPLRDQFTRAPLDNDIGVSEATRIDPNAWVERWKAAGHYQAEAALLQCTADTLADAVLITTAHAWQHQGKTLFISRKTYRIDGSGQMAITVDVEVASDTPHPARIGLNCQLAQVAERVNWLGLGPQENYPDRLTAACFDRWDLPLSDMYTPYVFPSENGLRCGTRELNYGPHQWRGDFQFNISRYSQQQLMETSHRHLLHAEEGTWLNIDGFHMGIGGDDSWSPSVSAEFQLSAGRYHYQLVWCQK
Hepatocyte nuclear factor 4-alpha, sequence (P41235 whole entry, the tested form may be a part): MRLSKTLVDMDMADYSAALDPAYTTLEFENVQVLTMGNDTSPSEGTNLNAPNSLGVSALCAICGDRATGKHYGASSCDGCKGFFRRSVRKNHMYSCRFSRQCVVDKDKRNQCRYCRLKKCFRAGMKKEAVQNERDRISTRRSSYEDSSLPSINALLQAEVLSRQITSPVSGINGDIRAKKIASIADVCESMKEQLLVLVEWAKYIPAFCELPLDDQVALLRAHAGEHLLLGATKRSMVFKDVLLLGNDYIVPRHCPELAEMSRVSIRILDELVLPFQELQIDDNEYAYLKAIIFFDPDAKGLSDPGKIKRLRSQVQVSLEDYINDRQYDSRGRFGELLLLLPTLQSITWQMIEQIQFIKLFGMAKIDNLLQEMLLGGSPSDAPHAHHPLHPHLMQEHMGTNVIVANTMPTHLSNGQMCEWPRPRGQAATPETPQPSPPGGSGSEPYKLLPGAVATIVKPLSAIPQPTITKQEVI
Apoptotic protease-activating factor 1, sequence (O14727 whole entry): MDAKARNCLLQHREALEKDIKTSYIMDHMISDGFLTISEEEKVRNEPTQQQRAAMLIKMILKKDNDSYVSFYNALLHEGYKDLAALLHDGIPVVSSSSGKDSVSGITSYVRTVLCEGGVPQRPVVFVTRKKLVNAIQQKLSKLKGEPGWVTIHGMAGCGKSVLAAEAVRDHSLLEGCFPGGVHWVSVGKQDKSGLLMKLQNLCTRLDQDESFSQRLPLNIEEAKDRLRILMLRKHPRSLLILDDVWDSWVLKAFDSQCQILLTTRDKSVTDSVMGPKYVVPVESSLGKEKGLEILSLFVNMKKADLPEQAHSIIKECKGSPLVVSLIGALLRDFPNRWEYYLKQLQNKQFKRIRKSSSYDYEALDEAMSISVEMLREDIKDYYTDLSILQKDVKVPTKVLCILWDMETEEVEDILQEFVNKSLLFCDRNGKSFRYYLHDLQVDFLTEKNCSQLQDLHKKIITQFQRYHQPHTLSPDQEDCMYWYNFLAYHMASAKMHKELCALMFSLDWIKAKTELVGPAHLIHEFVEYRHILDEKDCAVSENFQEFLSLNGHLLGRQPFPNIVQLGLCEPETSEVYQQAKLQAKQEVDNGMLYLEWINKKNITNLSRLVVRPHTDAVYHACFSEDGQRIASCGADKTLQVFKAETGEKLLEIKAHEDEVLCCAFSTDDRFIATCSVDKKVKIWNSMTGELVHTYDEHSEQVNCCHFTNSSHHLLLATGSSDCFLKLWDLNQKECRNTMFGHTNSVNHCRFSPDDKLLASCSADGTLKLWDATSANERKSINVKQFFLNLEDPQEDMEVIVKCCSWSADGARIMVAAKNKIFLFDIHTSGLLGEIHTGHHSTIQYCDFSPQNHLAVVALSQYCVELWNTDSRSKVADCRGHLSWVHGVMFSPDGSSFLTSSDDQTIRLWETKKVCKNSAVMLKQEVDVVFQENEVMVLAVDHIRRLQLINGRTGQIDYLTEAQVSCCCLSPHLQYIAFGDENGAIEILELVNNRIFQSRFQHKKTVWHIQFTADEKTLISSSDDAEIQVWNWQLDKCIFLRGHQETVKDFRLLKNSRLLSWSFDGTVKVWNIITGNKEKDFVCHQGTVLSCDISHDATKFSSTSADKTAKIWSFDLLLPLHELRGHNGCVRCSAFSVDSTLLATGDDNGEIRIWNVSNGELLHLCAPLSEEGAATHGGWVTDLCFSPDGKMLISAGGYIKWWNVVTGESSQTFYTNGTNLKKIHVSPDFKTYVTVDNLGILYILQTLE
Dual specificity protein kinase CLK1, sequence (P49759 whole entry): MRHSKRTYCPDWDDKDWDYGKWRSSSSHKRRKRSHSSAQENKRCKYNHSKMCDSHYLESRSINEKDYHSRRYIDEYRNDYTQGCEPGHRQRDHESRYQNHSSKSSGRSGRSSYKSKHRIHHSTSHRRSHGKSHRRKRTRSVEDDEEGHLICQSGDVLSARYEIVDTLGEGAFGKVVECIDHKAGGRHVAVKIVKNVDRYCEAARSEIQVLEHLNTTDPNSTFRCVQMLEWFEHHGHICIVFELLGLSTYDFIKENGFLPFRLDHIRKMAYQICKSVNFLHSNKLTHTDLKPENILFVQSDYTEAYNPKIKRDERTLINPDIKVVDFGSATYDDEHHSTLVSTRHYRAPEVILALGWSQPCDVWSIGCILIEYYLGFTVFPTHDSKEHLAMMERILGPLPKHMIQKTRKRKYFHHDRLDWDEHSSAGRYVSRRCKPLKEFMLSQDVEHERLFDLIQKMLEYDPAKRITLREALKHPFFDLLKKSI

Structure (SMILES): CCN1CCN(Cc2ccc(NC(=O)c3ccc(C)c(/C=C/c4cnc(Nc5cc(N6CCNCC6)nc(C)n5)cn4)c3)cc2C(F)(F)F)CC1
- EC50 [1]: 0.424 µM (inconclusive)
- EC50 [2]: 7.23 µM (active)
- EC50 [3]: 6.36 µM (active)
- IC50 [4]: > 20 µM (inactive)
- EC50 [5]: 86.5 µM (active)
- IC50 [6]: > 20 µM (inactive)
- CC50 [7]: 6.89 µM (active)
- EC50 [8]: > 150 µM (not active)
- IC50 [9]: > 20 µM (inactive)
- IC50 [10]: 9.4 µM (active)
- IC50 [11]: 11.1 µM (active)
- AC50 [12]: 0.725 µM (active)
- AC50 [13]: 1.99 µM (active)
- AC50 [14]: 12.8 µM (active)
- AC50 [15]: 9.56 µM (active)
- AC50 [16]: 19.6 µM (active)
- AC50 [17]: 27.6 µM (active)
- IC50 [18]: 5.88 µM (active)
- CC50 [19]: 21.6 µM (active)
- IC50 [20]: 41 µM (active)

Structure (SMILES): Cc1nn(-c2ccccc2)c(O)c1/C=N/NC(=O)c1ccc(O)cc1O
- IC50 [21]: 3.09 µM (active)
- AC50 [22]: 2.5 µM (active)
- IC50 [23]: 5.15 µM (active)
- EC50 [24]: 3.13 µM (active)

Structure (SMILES): Cc1ncc(CO)c(/C=N/Nc2ccc(C(F)(F)F)cn2)c1O
- EC50 [1]: 5.4 µM (active)
- EC50 [25]: 8.1 µM (active)
- EC50 [26]: 1.01 µM (active)
- EC50 [27]: > 40 µM (inactive)
- EC50 [28]: 0.907 µM (active)
- IC50 [29]: 28.7 µM (not active)
- EC50 [30]: > 350 µM (not active)
- IC50 [21]: 7.34 µM (active)
- AC50 [31]: 0.944 µM (active)
- AC50 [14]: 5.06 µM (active)
